Results reported in patent publication US5500430A, “Amidic derivatives of glutamic, aspartic and 2-amino adipic acids, a process for preparing same, and anti-gastrin composition containing the derivatives” (Rotta Research Laboratorium S.p.A., priority 1990, dated 1996).
Read-outs that look alike come from different tables or passages of the source.

What was measured:
[1] = system: gastric acid secretion induced by pentagastrin; experiment: Antisecretive activity in anaesthetised rats (pentagastrin-stimulated gastric acid secretion); assay type: in vivo; conditions: for ED50: Rattus norvegicus, iv, anaesthetised male rats, I.V. bolus, IN with bound, read-out: Antagonistic activity (ID50) towards gastric acid secretion induced by pentagastrin; for ED50 / Antigastrin activity (in words): pentagastrin 30 mcg/Kg/h; for Antigastrin activity (in words): anaesthetised rats
Protocol: Antisecretive activity in anaesthetised rats
Antisecretive activity in rats was determined with the use of male animals each weighing about 200 g, anaesthetised with urethane. Gastric secretion was stimulated with pentagastrin. The method of K. S. Lai (Gut 5, (1964), 327-341) was used, slightly modified.
After tracheotomy, cannulae were inserted in the oesophagus and the duodenum. A tepid solution. (37° C.) of 0.25 mM NaOH was perfused and passed through the stomach by means of a peristaltic pump at a constant flow rate of 1 ml/minute. After stabilisation for 20 minutes, the stimulating agent, dissolved in a physiological solution, was perfused for 120 minutes at a dose of 30 mcg/Kg/h in a volume of 0.95 ml/hour. After perfusion for 60 minutes (the basal stimulation), the product under test was administered as an intravenous bolus (I.V.) and the perfusion of the stimulant continued for a further 60 minutes. Acid secretion was recorded continuously as a function of time.
The activity of the product was evaluated as the percentage reduction in the secreted acidity after the administration of the product compared with the base acidity measured during the first 60 minutes of collection during which only the pentagastrin was present.
Different doses of the antagonist compounds tested were administered so that an ID50, that is, the dose (in mg/Kg I.V.) capable of inhibiting the effect of pentagastrin by 50%, could be calculated.
The results thus obtained are illustrated in the following table (Table 1) in which the activities of the compounds are expressed as the ID50s under the stimulus of 30 mcg/Kg/h of pentagastrin.

[2] = system: gastric acid secretion induced by pentagastrin; experiment: Antisecretive activity in conscious dogs carrying gastric fistulae; assay type: in vivo, dogs (beagles); conditions: for ED50: Canis lupus familiaris, iv, read-out: ID50 (the source's name)
Protocol: Antisecretive activity in conscious dogs
Male beagles weighing about 10 Kg were used and carried gastric fistulae at the level of the greater curvature, connected near the antral region, steel cannulae 5 cm long and 2 cm wide being inserted for collecting the gastric juices externally. After a period of about one month to recover from the operation, and after suitable conditioning, the animals were treated with pentagastrin at a dose of 3 mcg/Kg/h. The Stimulant, dissolved in a physiological solution, was perfused into the femoral vein for 180 minutes at a rate of 1.9 ml/h. After perfusion for 60 minutes (the basal stimulation) the product under test, dissolved in a physiological solution (1 ml/Kg), was administered in a bolus into the contra-lateral vein and, at the same time, the perfusion of the stimulant continued for a further 120 minutes. The acid secretion was recorded continuously as a function of time.
The activity of the product was evaluated as the percentage reduction in the secreted acidity after the administration of the product compared with the base acidity measured during the first 60 minutes of collection during which only the pentagastrin was present, for each of the periods 0-60 and 60-120 minutes after the product had been administered in a bolus.
Different doses of the compounds (C-1 and C-5) tested were administered so that an ID50, that is the dose (in mg/Kg I.V.) capable of inhibiting the effect of the pentagastrin by 50% could be calculated.
The results obtained are given in the following table (Tab. 2) in which the % variations from the base (the mean ± standard deviations calculated on the values obtained from 4 animals) are given for the various doses administered under the stimulus of 3 mcg/Kg/h of pentagastrin, as well as the activities of the compounds, calculated as their ID50s, and the correlation coefficients of the regression lines calculated on the basis of the experimental data.

[3] = molecular target: T1, gastrin receptor sites on the cerebral cortex membranes of mice (Mus musculus, UniProt P56481); experiment: Inhibition of the binding of pentagastrin to mouse cortical membranes
T1 construct: Mouse cortical tissue; from tissue; host or cells: mouse cerebral cortex membranes
T1 sequence (P56481 1-453): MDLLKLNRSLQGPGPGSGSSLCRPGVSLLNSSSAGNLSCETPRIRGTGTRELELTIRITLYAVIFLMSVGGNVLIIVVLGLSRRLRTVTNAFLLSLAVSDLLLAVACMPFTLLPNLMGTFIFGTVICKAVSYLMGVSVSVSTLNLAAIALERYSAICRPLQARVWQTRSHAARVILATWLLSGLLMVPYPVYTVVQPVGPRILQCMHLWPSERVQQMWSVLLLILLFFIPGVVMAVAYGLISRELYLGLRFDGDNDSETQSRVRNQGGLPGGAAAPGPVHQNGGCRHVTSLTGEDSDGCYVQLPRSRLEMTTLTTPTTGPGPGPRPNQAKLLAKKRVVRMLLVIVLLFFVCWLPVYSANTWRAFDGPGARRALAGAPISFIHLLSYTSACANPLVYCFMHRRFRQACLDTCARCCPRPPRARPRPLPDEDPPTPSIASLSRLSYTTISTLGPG
From the text: Tests on binding to cerebral cortex membranes of mice
The capacities of some of the compounds of the invention to inhibit the binding of pentagastrin to the gastrin receptor sites on the cerebral cortex membranes of mice was to be evaluated. Pentagastrin tritiate[beta-alanyl-3-3H(N)] was used as the ligand.
Mouse cortical tissue Was homogenised cold in 20 volumes of tris buffer (pH 7.7). After washing and centrifuging, the final pellet was resuspended in 20 volumes of binding buffer containing, inter alia, TRIS, BSA and Bacitracin. 0.4 ml of the membrane thus obtained were then incubated with a radioactive tracer and the compounds under test for 40 minutes at 37° C.
After the supernatant liquid had been removed by centrifuging, the radioactivity associated with the pellet was determined with a liquid scintillator (a beta-counter). The specific binding was the difference between the binding in the absence and in the presence of 10^-5M pentagastrin.

[4] = system: guinea-pig gall bladder contracted with CCK-8; experiment: Anticholecystokinin (anti-CCK) activity on guinea-pig gall bladders stimulated by CCK-8 in vitro; conditions: CCK-8 concentration 10 ng/ml, Krebs, 32° C.
Protocol: Anticholecystokinin (anti-cc, K) activity
In order to confirm the hypothesis that the molecular conformations of the compounds of the invention are suitable to provide them with antagonistic activity towards CCK as well as towards gastrin, the anticontracturant activities of some of the compounds of the invention were tested on guinea-pig gall bladders stimulated by CCK-8 in vitro.
A longitudinal strip of guinea-pig gall bladder was placed in a bath for isolated organs in the presence of Krebs at a temperature of 32° C. and oxygenated continuously with an oxygen-CO2 mixture (95-5 V/V).
The isometric contractions were detected by means of a force transducer and recorded.
The gall bladder was contracted with the use of a concentration of 10 ng/ml of CCK-8; the antagonistic activities of the compounds towards the contracturant effect of the CCK was determined with the use of different concentrations, thus determining the IC50 values, that is, the concentration of the compound in mcg/ml which can antagonise the contracturant effect of CCK by 50%.

fundic mucosa = experiment: Fundic mucosa hyperplasia induced by pentagastrin in mice; assay type: in vivo; conditions: 21 days
From the text: (§1) Inhibitory effect on the rate of growth of tumorous colic cells induced by pentagastrin
(§2) Gastrin has a trophic effect on the digestive epithelium.
(§3) Upon the basis of this premise, it was wished to investigate whether the gastrin-specific antagonists of the invention could antagonise the growth of experimentally-induced gastrointestinal tumours.
(§4) Male mice weighing 20-25 g were inoculated subcutaneously in the interscapular region with a suspension of 8×10^4 tumour cells of a mouse colic adenocarcinoma.
(§5) After 21 days, the animals were killed and the fundic mucosa and the tumours were removed, weighed and extracted to determine the DNA.

[5] = system: mouse colic adenocarcinoma; experiment: Colic tumorous growth induced by pentagastrin in mice; assay type: in vivo; conditions: 21 days
From the text: as §1, §2, §3, §4, §5

fundic and colic mucosae = conditions: rats; cited from earlier work
[6] = system: transplantable mouse colic tumour; conditions: Winsell et al., Surgical Forum, 33, 384 (1982); cited from earlier work
[7] = pentagastrin tritiate ligand, 40 minutes at 37° C., read-out: IC50, inhibition of the binding of pentagastrin
[8] = pentagastrin alone, 250 mcg/Kg twice a day

O=C(O)CC[C@@H](NC(=O)c1cccc(Cl)c1)C(=O)N1CCC2(CCCC2)CC1 [Compound C1]
ED50 [1]: 20 mg/kg | Antigastrin activity (in words) [1]: particularly favourable | Activity on the peripheral gastrin (gastric secretion) receptor relative to compound C2 (times more active) ([1]; rats, vs C2): about 1.5 times | Variation % (Mean ± SD) from base (0-60 min) ([2]; 5 mg/Kg I.V., period 60-120 min): -18.2 ± 0.3% | Variation % (Mean ± SD) from base (0-60 min) ([2]; 5 mg/Kg I.V., period 120-180 min): -22.8 ± 16.7% | Variation % (Mean ± SD) from base (0-60 min) ([2]; 10 mg/Kg I.V., period 60-120 min): -38.9 ± 7.9% | Variation % (Mean ± SD) from base (0-60 min) ([2]; 10 mg/Kg I.V., period 120-180 min): -14.3 ± 8.5% | Variation % (Mean ± SD) from base (0-60 min) ([2]; 20 mg/Kg I.V., period 60-120 min): -49.5 ± 4.2% | Variation % (Mean ± SD) from base (0-60 min) ([2]; 20 mg/Kg I.V., period 120-180 min): -26.1 ± 6.4% | Variation % (Mean ± SD) from base (0-60 min) ([2]; 30 mg/Kg I.V., period 60-120 min): -61.1 ± 12.5% | Variation % (Mean ± SD) from base (0-60 min) ([2]; 30 mg/Kg I.V., period 120-180 min): -56.7 ± 19.5% | Variation % (Mean ± SD) from base (0-60 min) ([2]; 40 mg/Kg I.V., period 60-120 min): -63.4 ± 11.5% | Variation % (Mean ± SD) from base (0-60 min) ([2]; 40 mg/Kg I.V., period 120-180 min): -43.4 ± 10.3% | Variation % (Mean ± SD) from base (0-60 min) ([2]; 60 mg/Kg I.V., period 60-120 min): -74.2 ± 5.6% | Variation % (Mean ± SD) from base (0-60 min) ([2]; 60 mg/Kg I.V., period 120-180 min): -79.9 ± 1.6% | ED50 ([2]; 1 h, conscious dogs, I.V. bolus, period 60-120 min (first hour after administration)): 19.7 mg/kg | ED50 ([2]; 2 h, conscious dogs, I.V. bolus, period 120-180 min (second hour after administration)): 31.5 mg/kg | ID50 ([2]; conscious dogs, I.V. bolus, period 60-120 min (first hour after administration), 60 min): about 20 mg/Kg | Inhibition of gastric acid secretion induced by pentagastrin in dogs (in words) ([2]; conscious dogs, first hour after bolus): potent inhibitors of gastric acid secretion induced by pentagastrin in dogs | Activity relative to the corresponding S enantiomer (times more active) ([3]; R series vs S enantiomers (C1 vs C32)): about 50 times | IC50 [3, 7]: 0.47 µM | Central activity relative to C2 ([3]; vs C2): only one third as active as C2 centrally | Anti-CCK activity IC50 [4]: 20 mg/L

O=C(O)CC[C@@H](NC(=O)c1cccc(Cl)c1)C(=O)NCCC12CC3CC(CC(C3)C1)C2 [Compound C30]
ED50 [1]: 25 mg/kg | Antigastrin activity (in words) [1]: particularly favourable | IC50 [3, 7]: 0.03 µM | Anti-CCK activity IC50 [4]: 59 mg/L

O=C(O)CCC(NC(=O)c1cccc(Cl)c1)C(=O)N1CCC2(CC1)OCC(CO)O2 (stereo not shown) [Compound D2]
ED50 [1]: 85 mg/kg | IC50 [3]: > 10 µM | Anti-CCK activity IC50 [4]: 108 mg/L

O=C(O)CC(NC(=O)c1cccc(Cl)c1)C(=O)N1CCC2(CCCC2)CC1 (stereo not shown) [Compound D4]
ED50 [1]: 70 mg/kg | IC50 [3, 7]: 6.8 µM | Anti-CCK activity IC50 [4]: 36 mg/L

CSCC[C@H](NC(=O)[C@H](Cc1c[nH]c2ccccc12)NC(=O)CCNC(=O)OC(C)(C)C)C(=O)N[C@@H](CC(=O)O)C(=O)N[C@@H](Cc1ccccc1)C(N)=O [Pentagastrin, pentagastrin, reference compound]
IC50 [3]: 0.0025 µM | Effect on the fundic mucosa (in words) (fundic mucosa; mice): induces significant hyperplasia in the fundic mucosa | Fundic DNA, Mean ± SD (fundic mucosa; [8]): 0.330 ± 0.05 mg | Weight of the mucosa fundica, Mean ± SD (fundic mucosa; [8]): 32.0 ± 3.50 mg | Effect on colic tumour weight and DNA content (in words) ([5]; mice): a significant increase in the weight of the colic tumour and the DNA content | Tumorous DNA, Mean [5, 8]: 3.62 ± 0.50 mg | Weight of the colic tumor, Mean ± SD [5, 8]: 657.0 ± 97.7 mg | Trophic effect of chronic administration (fundic and colic mucosae): causes hyperplasia of the fundic and colic mucosae

gastrin
Trophic effect of chronic administration (fundic and colic mucosae): causes hyperplasia of the fundic and colic mucosae | Effect on growth of a transplantable mouse colic tumour [6]: stimulates the growth of a transplantable mouse colic tumour
